Results reported in patent publication US20230017266A1, “Cyclooxygenase-2 Inhibition for the Treatment of SAA-high Asthma” (THE USA, AS REPRESENTED BY THE SECRETARY, DEPT. OF HEALTH …, priority 2019, published 2023).

Key:
[1] = tested on: CD14^+ monocytes; assay: HDL+SAA1-induced cytokine secretion by ex vivo CD14+ monocytes (ELISA); format: cell-based, human; conditions: for HDL+SAA1-mediated increases in cytokine secretion: 24 h
Procedure: Isolation of Peripheral Blood Monocytes. Peripheral blood monocytes were isolated using a two-step process. Peripheral blood was diluted with PBS at a 1:1 ratio, slowly overlaid onto 30 ml of Lymphoprep™ (catalog #07811, StemCell Technologies, Vancouver Canada) in a 50 ml conical tube, and centrifuged at 400×g for 25 min without braking. The peripheral blood mononuclear cell (PBMC) layer was carefully transferred to another 50 ml conical tube, washed with PBS, followed by two washes with FACS buffer (0.5 mM EDTA, 1% BSA, and 1% mouse serum in PBS). Monocytes subsets were identified and sorted by flow cytometry using the following antibodies: PE mouse anti-human CD45 clone HI30 (catalog #555483), BV421 mouse anti-human CD14 clone MφP9 (catalog #563743), and FITC mouse anti-human CD16 clone B73.1 (catalog #561308), and a FACS ARIA Fusion sorter equipped with 355, 407, 488, 532 and 640 nm LASER lines using FACS DIVA 8.0 software (all from BD Biosciences, San Jose, Calif.). The gating strategy identified a population of debris-free, single, live, ^SSCmoderate/high, CD45^+ cells from which CD14^+/CD16^− (classical), CD14^+/CD16^+ (intermediate), CD14^dim/CD16^+ (non-classical), and CD14^+ (classical and intermediate) cells were sorted and utilized for experiments, as indicated (Supplemental FIG. 4).
HDL+SAA1 Stimulation of Peripheral Blood Monocytes Subsets. […] As previously described, normal HDL was isolated from plasma obtained from healthy subjects by sequential KBr differential gradient ultracentrifugation at 330,000 g and extensive dialysis with 50 mM HEPES, 50 mM NaCL, 5 mM MgCl2 and 2 mM CaCl2, pH 7.0, at 4° C. Normal HDL was complexed with recombinant human serum amyloid A-1 at a 2:1 ratio by mixing and incubated at RT overnight to generate HDL+SAA1, which was filtered using a 100-kDa exclusion filter (Amicon Ultra Centrifuge Filters, Millipore, Darmstadt, Germany) to remove any uncomplexed SAA1. Normal HDL was also complexed with the amount of lipopolysaccharide (catalog # L4391, E. coli 0111:B4, y-irradiated, MilliporeSigma, St. Louis, Mo.) present in recombinant human SAA1. Additionally, classical CD14^+ monocytes were treated with the P2X7R antagonist, A438079, the IKK inhibitor, BAY-11-7082, the IKKβ (IKK-2) inhibitor, TPCA-1, or the selective COX-2 inhibitor, celexocib, all from MilliporeSigma(St. Louis, Mo.). Cells were also treated with the FPR2 antagonist, WRW4, or diclofenac from Tocris (Minneapolis, Minn.). The amount of IL-1β, IL-6, TNF-α and IL-10 secreted into cell culture supernatants was quantified using human DuoSet ELISA kits (R&D Systems) and data were acquired using a SpectraMax M2 spectrophotometer (Molecular Devices, San Jose, Calif.). Western blotting, as previously described^43, was performed using antibodies directed against COX-1 (catalog #160110) and COX-2 (catalog #160112), both from Cayman Chemical (Ann Arbor, Mich.). Equivalency of protein loading was established using an antibody directed against GAPDH (catalog #MAB5718) from R&D Systems (Minneapolis, Minn.). Western blots images were captured using an iBright FL1000 Western Blot Imaging System (ThermoFisher Scientific, Waltham, Mass.) and quantified using NIH ImageJ software (imagej.nih.gov). […]

[2] = tested on: miR-155-5p; assay: miR-155-5p levels in CD14+ monocytes cultured with HDL+SAA1 (qRT-PCR); format: cell-based, human; conditions: 24 h
Procedure: Quantitative RT-PCR (qRT-PCR). Total RNA was purified using the Direct-Zol™ RNA MiniPrep kit and total RNA (100 ng) was reverse transcribed into cDNA using the High-Capacity cDNA Reverse Transcription Kit (Applied Biosystems, Foster City, Calif.). Polymerase chain reactions (PCR) were performed on duplicate cDNA samples using TaqMan Universal PCR Master Mix, FAM-MGB dye-labeled Taqman® PTGS2 probe (Assay ID Hs00153133_m1, catalog #4331182), and a 7900 Real Time PCR System running Sequence Detector version 2.4 software, all from Applied Biosystems (Foster City, Calif.). […] For quantification of miR-155-5p expression, miRNA present in total RNA (10 ng) was converted to cDNA using the microRNA cDNA Reverse Transcription kit (Applied Biosystems, Foster City, Calif.). Polymerase chain reaction (PCR) was performed on duplicate cDNA samples using TaqMan Universal PCR Master Mix, Taqman® MicroRNA Assay for has-miR-155-5p (Assay ID #002623, catalog #4427975), and a 7900HT Fast Real-Time PCR System running Sequence Detector version 2.4 software (ThermoFisher Scientific, Waltham, Mass.). miR-155-5p expression was quantified relative to expression of U6 snRNA using the control sample as calibrator to calculate the difference in Ct values (ΔΔCt) and presented as relative mRNA expression.

[3] = A438079 10 μM, pre-treated 1 h, HDL+SAA1 24 h

## NC(=O)Nc1sc(-c2ccc(F)cc2)cc1C(N)=O [TPCA1]
[1]; TPCA-1 1 μM
  HDL+SAA1-mediated increases in cytokine secretion: prevented
[2]; TPCA-1 1 μM
  HDL+SAA1-mediated increases in miR-155-5p: attenuated

## Cc1ccc(S(=O)(=O)/C=C/C#N)cc1 [BAY 11-7082]
[1]; BAY-11-7082 10 μM
  HDL+SAA1-mediated increases in cytokine secretion: prevented
[2]; BAY-11-7082 10 μM
  HDL+SAA1-mediated increases in miR-155-5p: attenuated

## Clc1cccc(-c2nnnn2Cc2cccnc2)c1Cl [A438079]
[1]; [3]
  HDL+SAA1-mediated secretion of IL-1β: significantly reduced
  HDL+SAA1-mediated secretion of IL-6: significantly reduced
  HDL+SAA1-mediated secretion of IL-10: significantly reduced
  HDL+SAA1-mediated secretion of TNF-α: significantly reduced
[2]; A438079 10 μM
  HDL+SAA1-mediated increases in miR-155-5p: significantly reduced
